{"source": "paper PMC9551036", "about": "“A selective and orally bioavailable VHL-recruiting PROTAC achieves SMARCA2 degradation in vivo” (Nature Communications, 2022)", "key": {"[1]": {"molecular_target": "SMARCA2 (Homo sapiens, UniProt P51531)", "sequence (P51531 whole entry)": "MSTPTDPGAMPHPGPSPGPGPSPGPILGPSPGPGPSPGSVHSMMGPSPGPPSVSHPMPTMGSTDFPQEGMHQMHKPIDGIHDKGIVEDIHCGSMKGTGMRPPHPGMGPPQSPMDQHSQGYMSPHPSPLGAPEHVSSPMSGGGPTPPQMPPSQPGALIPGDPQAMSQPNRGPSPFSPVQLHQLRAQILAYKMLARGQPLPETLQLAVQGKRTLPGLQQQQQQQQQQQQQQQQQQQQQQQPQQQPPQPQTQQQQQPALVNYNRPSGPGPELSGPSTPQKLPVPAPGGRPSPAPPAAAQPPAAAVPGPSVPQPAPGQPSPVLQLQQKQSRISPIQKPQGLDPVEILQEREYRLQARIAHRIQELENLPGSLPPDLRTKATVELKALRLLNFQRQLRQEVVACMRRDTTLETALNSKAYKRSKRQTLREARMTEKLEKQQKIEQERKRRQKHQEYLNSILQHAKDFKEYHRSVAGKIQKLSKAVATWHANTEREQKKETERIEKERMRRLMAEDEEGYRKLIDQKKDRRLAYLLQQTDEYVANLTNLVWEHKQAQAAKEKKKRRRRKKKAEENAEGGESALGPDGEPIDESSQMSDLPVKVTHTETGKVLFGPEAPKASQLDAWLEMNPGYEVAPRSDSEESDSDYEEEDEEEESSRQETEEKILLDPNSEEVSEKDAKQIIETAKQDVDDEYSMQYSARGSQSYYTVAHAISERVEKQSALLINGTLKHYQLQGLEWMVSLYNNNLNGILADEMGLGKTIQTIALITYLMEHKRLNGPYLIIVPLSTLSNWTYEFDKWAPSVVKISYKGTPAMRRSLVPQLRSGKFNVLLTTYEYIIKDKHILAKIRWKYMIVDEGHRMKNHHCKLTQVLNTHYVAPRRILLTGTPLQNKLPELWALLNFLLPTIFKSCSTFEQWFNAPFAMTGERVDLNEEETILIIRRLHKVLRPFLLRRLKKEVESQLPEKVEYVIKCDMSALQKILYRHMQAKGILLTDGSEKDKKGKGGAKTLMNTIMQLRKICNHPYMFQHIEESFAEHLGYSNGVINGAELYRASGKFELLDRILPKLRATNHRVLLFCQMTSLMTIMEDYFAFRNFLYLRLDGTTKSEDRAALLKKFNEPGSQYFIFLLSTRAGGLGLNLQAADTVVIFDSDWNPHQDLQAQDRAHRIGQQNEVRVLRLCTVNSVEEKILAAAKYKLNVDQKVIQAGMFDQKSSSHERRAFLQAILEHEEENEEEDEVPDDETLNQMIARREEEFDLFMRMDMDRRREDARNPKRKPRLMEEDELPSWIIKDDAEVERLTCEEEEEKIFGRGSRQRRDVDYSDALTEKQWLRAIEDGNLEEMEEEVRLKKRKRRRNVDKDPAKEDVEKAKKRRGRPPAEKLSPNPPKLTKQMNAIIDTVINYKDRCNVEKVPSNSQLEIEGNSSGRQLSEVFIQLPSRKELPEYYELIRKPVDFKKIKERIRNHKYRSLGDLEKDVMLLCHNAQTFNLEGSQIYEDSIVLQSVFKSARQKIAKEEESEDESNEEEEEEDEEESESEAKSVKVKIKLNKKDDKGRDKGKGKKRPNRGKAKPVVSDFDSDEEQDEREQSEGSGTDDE", "assay": "SMARCA2 IHC in A549 xenograft tumours", "format": "in vivo, mouse", "parameters": "from tissue; host or cells: subcutaneous NCI-H1568 or A549 xenograft tumours in BomTac:NMRI-Foxn1nu mice", "method": "(§1) To establish subcutaneous tumours, mice were injected with 5 × 10^6 NCI-H1568 in PBS with 5% FCS or with 1 × 10^7 A549 cells in PBS with 5% FCS. Tumour diameters were measured with a caliper three times a week. The volume of each tumour (in mm^3) was calculated according to the formula [tumour volume = length × diameter^2 × π/6]. To monitor side effects of treatment, mice were inspected daily for abnormalities and body weight was determined daily after the start of treatment. Animals were sacrificed when the tumours reached a size of 1500 mm^3. Mice were randomised into treatment groups when the average tumour size reached ~210–220 mm^3. Group sizes were calculated individually for each tumour model based on tumour growth during model establishment experiments. A power analysis was performed using a sample size calculator (https://www.stat.ubc.ca/~rollin/stats/ssize/n2.html). For both models used in the study, 10 mice per group were used for each experiment. All administrations were dosed with 10 ml/kg (s.c. and oral). Control mice were dosed subcutaneously with 10% HP-β-CD in 50% Ringer solution and orally with 15% HP-β-CD, that means the control mouse treatment was corresponding to the solvent of the compounds. Compound 6 was dosed subcutaneously either in a d1-4 q3d, d6-8 q2d, d11-13 q2d treatment (Treatment 1) or a q3 or 4d treatment (Treatment 2).\nXenograft samples were fixed in 10% formaldehyde for 24 h and later moved to ethanol and embedded in paraffin. 2 µm-thick sections were cut using a microtome, then placed on glass slides ([…], silan printer slides PR-S:001), and subsequently dewaxed. […] All slides were reviewed and evaluated for quality by a board-certified MD specialist in Anatomic Pathology (PC). […] A positivity threshold for DAB OD was determined by normalisation with respect to the DAB OD as calculated from bona fide negative tissue (e.g. murine stroma as background). The average, background-normalised DAB OD of tumour cell nuclei was used to quantitate SMARCA2 expression in each xenograft sample."}, "[2]": {"molecular_target": "SMARCA4 (Homo sapiens, UniProt P51532)", "sequence (P51532 whole entry)": "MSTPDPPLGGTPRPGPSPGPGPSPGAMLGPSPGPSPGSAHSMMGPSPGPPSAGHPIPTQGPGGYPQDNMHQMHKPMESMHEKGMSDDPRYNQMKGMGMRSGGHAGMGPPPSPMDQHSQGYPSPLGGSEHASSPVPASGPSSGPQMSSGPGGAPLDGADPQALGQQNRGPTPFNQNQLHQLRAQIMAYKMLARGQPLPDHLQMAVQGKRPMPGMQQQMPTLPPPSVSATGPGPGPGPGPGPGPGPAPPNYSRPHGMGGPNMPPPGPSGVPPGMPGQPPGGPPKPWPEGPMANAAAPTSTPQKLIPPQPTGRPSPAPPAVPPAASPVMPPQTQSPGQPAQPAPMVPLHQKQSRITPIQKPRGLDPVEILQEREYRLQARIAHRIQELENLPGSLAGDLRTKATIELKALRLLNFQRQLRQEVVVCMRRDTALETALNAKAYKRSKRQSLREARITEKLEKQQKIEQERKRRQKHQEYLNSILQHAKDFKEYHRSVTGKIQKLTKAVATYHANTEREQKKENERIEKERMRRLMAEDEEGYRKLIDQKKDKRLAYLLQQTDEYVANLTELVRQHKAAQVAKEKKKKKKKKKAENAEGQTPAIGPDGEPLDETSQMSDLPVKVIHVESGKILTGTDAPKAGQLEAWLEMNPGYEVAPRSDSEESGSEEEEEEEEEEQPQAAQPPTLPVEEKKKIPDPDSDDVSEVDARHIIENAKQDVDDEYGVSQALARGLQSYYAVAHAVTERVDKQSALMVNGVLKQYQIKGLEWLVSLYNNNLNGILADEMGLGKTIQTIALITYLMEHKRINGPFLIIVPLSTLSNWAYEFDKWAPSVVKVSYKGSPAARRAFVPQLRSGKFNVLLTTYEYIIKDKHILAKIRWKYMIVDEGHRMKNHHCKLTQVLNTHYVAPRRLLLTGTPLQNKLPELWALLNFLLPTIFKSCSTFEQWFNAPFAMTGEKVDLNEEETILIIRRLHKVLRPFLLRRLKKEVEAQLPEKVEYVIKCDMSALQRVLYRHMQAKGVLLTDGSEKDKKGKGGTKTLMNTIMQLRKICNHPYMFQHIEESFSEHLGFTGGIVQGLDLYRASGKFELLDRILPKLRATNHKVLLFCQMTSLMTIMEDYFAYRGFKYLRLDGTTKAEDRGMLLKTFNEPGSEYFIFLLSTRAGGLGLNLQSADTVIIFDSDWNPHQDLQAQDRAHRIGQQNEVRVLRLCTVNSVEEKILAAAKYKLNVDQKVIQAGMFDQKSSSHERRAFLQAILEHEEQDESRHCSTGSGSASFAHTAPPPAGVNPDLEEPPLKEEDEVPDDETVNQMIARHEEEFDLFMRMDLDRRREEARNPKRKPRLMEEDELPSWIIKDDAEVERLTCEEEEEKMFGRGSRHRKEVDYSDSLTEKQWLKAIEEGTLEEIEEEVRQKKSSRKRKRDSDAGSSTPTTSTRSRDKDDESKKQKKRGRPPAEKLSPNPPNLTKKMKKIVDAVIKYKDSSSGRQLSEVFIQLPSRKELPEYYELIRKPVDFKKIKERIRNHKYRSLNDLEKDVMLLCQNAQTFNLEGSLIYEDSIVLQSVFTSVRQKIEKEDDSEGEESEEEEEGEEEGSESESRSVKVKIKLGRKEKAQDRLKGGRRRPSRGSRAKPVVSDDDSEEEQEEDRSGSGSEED", "assay": "Ex vivo human whole blood assay, SMARCA4", "format": "cell-based", "parameters": "endogenous in cells", "conditions": "for HillSlope (best-fit value): four-parameter fit; for Bottom (best-fit value) / Span (best-fit value) / Top (best-fit value): four-parameter fit of % protein remaining", "method": "The assay was performed on human whole blood from three healthy donors, purchased from the Austrian Red Cross who always obtain samples under informed consent. […] Subsequently, peripheral blood mononucleated cells (PBMCs) were isolated from individual aliquots using SepMate Tubes (StemCell) and Lymphoprep (StemCell) medium according to the manufacturer’s instructions and protein lysates were prepared using MSD Lysis buffer (Mesocale Discovery) supplemented with 1:100 Halt Phosphatase-Protease Inhibitor Cocktail (Thermo Fisher), 0.5 µl/ml benzonase (Novagen) and 10 mM DTT. SMARCA2 and SMARCA4 protein levels were determined using capillary electrophoresis (Bio-Techne) according to manufacturer’s instructions. Incubation with primary antibodies for SMARCA2 (Cell Signalling #11966 clone D9E8B RRID:AB_2797783 1:25), SMARCA4 (Abcam #ab110641 clone EPNCIR111A RRID:AB_10861578 1:25) and GAPDH (Abcam, #ab9485 RRID:AB_307275 1:1000) were performed for 30 min."}, "[3]": {"test_system": "A549 tumour xenograft", "assay": "A549 xenograft tumour growth", "format": "in vivo, mouse", "conditions": "for Tumor volume: Fig4g, 80 mg/kg, qd, per animal", "method": "as §1\nFor the evaluation of the statistical significance of tumour growth inhibition, a one-tailed nonparametric Mann-Whitney-Wilcoxon U-test was performed, based on the hypothesis that an effect would only be measurable in one direction (i.e. expectation of tumour inhibition but not tumour stimulation). Analysis was performed on the day indicated for each experiment. The p values obtained from the U-test were adjusted using the Bonferroni-Holm correction. By convention, p values ≤0.05 indicate significance of differences."}}, "note": "“And” between values parts separate entries of the source, which are not always exact repeats. Identical values can stand only once. “Also recorded” adds a separate entry of the source.", "data": [{"smiles": "Cc1ncsc1-c1ccc(C(CCC(C)CCN2CCC(c3ccc4c(c3)n(C3CCCC3)c3nc(=O)c5c(Br)cccc5n43)CC2)NC(=O)C2CC(O)CN2C(=O)C(NC(=O)C2(F)CC2)C(C)(C)C)cc1", "note": "(stereo not drawn) [ACBI2]", "values": [{"measurement": "SMARCA2 staining in tumours at the end of the efficacy study", "setting": "[1]; A549 xenograft, 80 mg/kg p.o. once daily, 80 mg/kg", "result": "reduced to background levels; also recorded: decreased to background levels"}, {"measurement": "SMARCA2 (OD, normalised)", "setting": "[1]; Fig4h, 80 mg/kg po qd, background OD 0.05910 subtracted", "result": 0.00000}, {"measurement": "Avg Stain 1 Nuclear OD", "setting": "[1]; Fig4h, 80 mg/kg po qd, per animal", "result": "0.04104 and 0.05262 and 0.08316 and 0.0589 and 0.03791 and 0.04411"}, {"measurement": "% protein remaining, SMARCA4", "setting": "[2]; Donor 1, log10[concentration (mol/l)] -6", "result": "46.277% and 56.0869% and 48.4826%"}, {"measurement": "% protein remaining, SMARCA4", "setting": "[2]; Donor 1, log10[concentration (mol/l)] -6.47712", "result": "107.389% and 70.5686% and 73.1116%"}, {"measurement": "% protein remaining, SMARCA4", "setting": "[2]; Donor 1, log10[concentration (mol/l)] -6.95424", "result": "84.4427% and 113.429% and 101.258%"}, {"measurement": "% protein remaining, SMARCA4", "setting": "[2]; Donor 1, log10[concentration (mol/l)] -7.43136", "result": "119.708% and 145.145% and 104.637%"}, {"measurement": "% protein remaining, SMARCA4", "setting": "[2]; Donor 1, log10[concentration (mol/l)] -7.90848", "result": "127.921% and 114.745% and 82.4839%"}, {"measurement": "% protein remaining, SMARCA4", "setting": "[2]; Donor 1, log10[concentration (mol/l)] -8.38561", "result": "104.578% and 95.4334% and 80.9398%"}, {"measurement": "HillSlope (best-fit value)", "setting": "[2]; Donor 1 SMARCA4", "result": -2.117}, {"measurement": "Bottom (best-fit value)", "setting": "[2]; Donor 1 SMARCA4", "result": 40.33, "unit": "%"}, {"measurement": "Span (best-fit value)", "setting": "[2]; Donor 1 SMARCA4", "result": 66.56, "unit": "%"}, {"measurement": "Top (best-fit value)", "setting": "[2]; Donor 1 SMARCA4", "result": 106.9, "unit": "%"}, {"measurement": "% protein remaining, SMARCA4", "setting": "[2]; Donor 2, log10[concentration (mol/l)] -6", "result": "50.102% and 76.224% and 84.3004%"}, {"measurement": "% protein remaining, SMARCA4", "setting": "[2]; Donor 2, log10[concentration (mol/l)] -6.47712", "result": "93.5183% and 92.0167% and 75.7642%"}, {"measurement": "% protein remaining, SMARCA4", "setting": "[2]; Donor 2, log10[concentration (mol/l)] -6.95424", "result": "80.3377% and 113.951% and 102.967%"}, {"measurement": "% protein remaining, SMARCA4", "setting": "[2]; Donor 2, log10[concentration (mol/l)] -7.43136", "result": "130.957% and 130.042% and 111.295%"}, {"measurement": "% protein remaining, SMARCA4", "setting": "[2]; Donor 2, log10[concentration (mol/l)] -7.90848", "result": "121.533% and 102.344% and 98.5667%"}, {"measurement": "% protein remaining, SMARCA4", "setting": "[2]; Donor 2, log10[concentration (mol/l)] -8.38561", "result": "105.689% and 139.901% and 105.419%"}, {"measurement": "% protein remaining, SMARCA4", "setting": "[2]; Donor 2, log10[concentration (mol/l)] -8.86273", "result": "54.3169% and 99.7184% and 98.048%"}, {"measurement": "HillSlope (best-fit value)", "setting": "[2]; Donor 2 SMARCA4", "result": -2.11}, {"measurement": "Bottom (best-fit value)", "setting": "[2]; Donor 2 SMARCA4", "result": 67.18, "unit": "%"}, {"measurement": "Span (best-fit value)", "setting": "[2]; Donor 2 SMARCA4", "result": 40.18, "unit": "%"}, {"measurement": "Top (best-fit value)", "setting": "[2]; Donor 2 SMARCA4", "result": 107.4, "unit": "%"}, {"measurement": "% protein remaining, SMARCA4", "setting": "[2]; Donor 3, log10[concentration (mol/l)] -6.47712", "result": "88.0329% and 79.2762% and 67.3837%"}, {"measurement": "% protein remaining, SMARCA4", "setting": "[2]; Donor 3, log10[concentration (mol/l)] -6.95424", "result": "92.9994% and 98.4764% and 74.8427%"}, {"measurement": "% protein remaining, SMARCA4", "setting": "[2]; Donor 3, log10[concentration (mol/l)] -7.43136", "result": "95.6107% and 82.1879% and 123.028%"}, {"measurement": "% protein remaining, SMARCA4", "setting": "[2]; Donor 3, log10[concentration (mol/l)] -7.90848", "result": "125.23% and 122.739% and 76.3116%"}, {"measurement": "% protein remaining, SMARCA4", "setting": "[2]; Donor 3, log10[concentration (mol/l)] -8.38561", "result": "96.5427% and 109.291% and 74.8647%"}, {"measurement": "% protein remaining, SMARCA4", "setting": "[2]; Donor 3, log10[concentration (mol/l)] -8.86273", "result": "92.1949% and 111.194% and 102.774%"}, {"measurement": "HillSlope (best-fit value)", "setting": "[2]; Donor 3 SMARCA4", "result": -1.413}, {"measurement": "Bottom (best-fit value)", "setting": "[2]; Donor 3 SMARCA4", "result": 61.66, "unit": "%"}, {"measurement": "Span (best-fit value)", "setting": "[2]; Donor 3 SMARCA4", "result": 39.83, "unit": "%"}, {"measurement": "Top (best-fit value)", "setting": "[2]; Donor 3 SMARCA4", "result": 101.5, "unit": "%"}, {"measurement": "SMARCA4 degradation in human whole blood", "setting": "[2]; up to a top concentration of 1 µM", "result": "≤ 50", "unit": "%"}, {"measurement": "TGI", "setting": "[3]; A549 xenograft, 80 mg/kg p.o. once daily, day 21", "result": 47, "unit": "%"}, {"measurement": "Tumor volume", "setting": "[3]; day 1", "result": "123.81 mm3 and 132.68 mm3 and 160.75 mm3 and 185.14 mm3 and 199.53 mm3 and 221.26 mm3 and 231.03 mm3 and 289.04 mm3 and 318.82 mm3 and 328.35 mm3"}, {"measurement": "Tumor volume", "setting": "[3]; day 4", "result": "227.06 mm3 and 262.12 mm3 and 188.92 mm3 and 409.05 mm3 and 274.16 mm3 and 314.25 mm3 and 306.21 mm3 and 369.92 mm3 and 481.58 mm3 and 366.82 mm3"}, {"measurement": "Tumor volume", "setting": "[3]; day 7", "result": "231.98 mm3 and 243.18 mm3 and 196.23 mm3 and 274.16 mm3 and 253.11 mm3 and 344.34 mm3 and 317.61 mm3 and 448.55 mm3 and 592.88 mm3 and 312.54 mm3"}, {"measurement": "Tumor volume", "setting": "[3]; day 9", "result": "261.94 mm3 and 301.83 mm3 and 219.73 mm3 and 302.82 mm3 and 326.12 mm3 and 416.63 mm3 and 335.28 mm3 and 487.15 mm3 and 592.89 mm3 and 371.89 mm3"}, {"measurement": "Tumor volume", "setting": "[3]; day 11", "result": "258.58 mm3 and 202.63 mm3 and 223.15 mm3 and 242.18 mm3 and 278.14 mm3 and 355.98 mm3 and 334.2 mm3 and 464.77 mm3 and 688.26 mm3 and 480.94 mm3"}, {"measurement": "Tumor volume", "setting": "[3]; day 16", "result": "301.85 mm3 and 268.43 mm3 and 297.84 mm3 and 244.81 mm3 and 221.75 mm3 and 393.39 mm3 and 329.71 mm3 and 573.4 mm3 and 713.65 mm3 and 552.3 mm3"}, {"measurement": "Tumor volume", "setting": "[3]; day 18", "result": "316.56 mm3 and 265.75 mm3 and 265.54 mm3 and 297.93 mm3 and 440.11 mm3 and 297.45 mm3 and 522.76 mm3 and 814.33 mm3 and 590.82 mm3"}, {"measurement": "Tumor volume", "setting": "[3]; day 21", "result": "331.26 mm3 and 257.14 mm3 and 246.03 mm3 and 472.38 mm3 and 341.87 mm3 and 428.61 mm3 and 821.5 mm3 and 487.26 mm3"}, {"measurement": "Tumor volume", "setting": "[3]; day 23", "result": "322.32 mm3 and 225.79 mm3 and 259.68 mm3 and 527.19 mm3 and 270.43 mm3 and 777.27 mm3 and 455.64 mm3"}]}]}
